Patent publication US20260272878A1, “ADAR1 INHIBITORS AND USES THEREOF” (THE WISTAR INSTITUTE OF ANATOMY AND BIOLOGY, priority 2023, published 2026)

Assays:
[1] = biological target: ADAR (Homo sapiens, UniProt P55265); conditions: literature study; cited from earlier work
[2] = biological target: T1, ADAR1p110-WT (Homo sapiens, UniProt P55265); assay: Biacore SPR binding to ADAR1p110-WT
T1 construct: made in house; host or cells: Sf9 cells (baculovirus)
T1 sequence (P55265 1-931 isoform P55265-5): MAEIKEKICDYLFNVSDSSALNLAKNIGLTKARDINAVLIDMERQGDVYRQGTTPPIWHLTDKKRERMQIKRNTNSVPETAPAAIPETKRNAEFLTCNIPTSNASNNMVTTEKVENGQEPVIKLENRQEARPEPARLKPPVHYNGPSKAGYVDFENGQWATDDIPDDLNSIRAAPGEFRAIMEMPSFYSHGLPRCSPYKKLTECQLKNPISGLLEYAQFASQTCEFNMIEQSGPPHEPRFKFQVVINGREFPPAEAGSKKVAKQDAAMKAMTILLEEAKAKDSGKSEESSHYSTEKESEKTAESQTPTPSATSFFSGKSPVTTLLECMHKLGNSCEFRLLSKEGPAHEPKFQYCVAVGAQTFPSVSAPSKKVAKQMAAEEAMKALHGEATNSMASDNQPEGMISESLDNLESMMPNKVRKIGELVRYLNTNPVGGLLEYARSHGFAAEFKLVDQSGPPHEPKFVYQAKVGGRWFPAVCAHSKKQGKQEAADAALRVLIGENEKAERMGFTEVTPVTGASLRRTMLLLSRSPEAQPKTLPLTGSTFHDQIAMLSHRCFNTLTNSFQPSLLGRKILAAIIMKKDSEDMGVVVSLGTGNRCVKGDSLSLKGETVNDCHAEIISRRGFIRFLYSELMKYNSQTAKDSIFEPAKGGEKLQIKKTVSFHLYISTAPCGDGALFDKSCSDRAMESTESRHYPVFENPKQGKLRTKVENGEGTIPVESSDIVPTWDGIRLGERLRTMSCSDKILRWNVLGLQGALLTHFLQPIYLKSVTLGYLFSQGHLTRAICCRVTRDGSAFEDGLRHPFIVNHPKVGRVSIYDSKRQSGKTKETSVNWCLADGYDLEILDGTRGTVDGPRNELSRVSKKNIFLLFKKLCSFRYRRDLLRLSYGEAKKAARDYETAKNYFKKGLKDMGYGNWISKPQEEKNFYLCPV
Source text: FIGS. 5A-5D show Biacore SPR analysis for binding of ADAR1i to ADAR1p110. (FIG. 5A) SPR analysis for binding kinetics of 8 compounds to ADAR1p110-WT. ADAR1 inhibition positive (ADAR1i-13, ADAR1i-120, ADAR1i-124) and negative compounds. (FIG. 5B, FIG. 5C) […] of SPR analysis for binding of ADAR1i-13 and ADAR1i-124 to ADAR1p110-WT and ADAR1p110-E912A as well as negative control proteins, GAPDH and HuR, are shown. […] ADAR1-E912, equivalent of ADAR2 E396, is located in the catalytic center.
No complete 3-D structure of ADAR1 is currently available. […] The glutamate E912 and E396 in ADAR1 and ADAR2, respectively, plays an important proton transfer function during hydrolytic deamination reaction (42, 43).

[3] = tested on: HeLa-Nluc-edit cells; assay: First screen: FFL activity (cell viability/apoptosis) in reporter HeLa cells; conditions: FIG. 2C

Sequence of ADAR (P55265 whole entry, species assumed): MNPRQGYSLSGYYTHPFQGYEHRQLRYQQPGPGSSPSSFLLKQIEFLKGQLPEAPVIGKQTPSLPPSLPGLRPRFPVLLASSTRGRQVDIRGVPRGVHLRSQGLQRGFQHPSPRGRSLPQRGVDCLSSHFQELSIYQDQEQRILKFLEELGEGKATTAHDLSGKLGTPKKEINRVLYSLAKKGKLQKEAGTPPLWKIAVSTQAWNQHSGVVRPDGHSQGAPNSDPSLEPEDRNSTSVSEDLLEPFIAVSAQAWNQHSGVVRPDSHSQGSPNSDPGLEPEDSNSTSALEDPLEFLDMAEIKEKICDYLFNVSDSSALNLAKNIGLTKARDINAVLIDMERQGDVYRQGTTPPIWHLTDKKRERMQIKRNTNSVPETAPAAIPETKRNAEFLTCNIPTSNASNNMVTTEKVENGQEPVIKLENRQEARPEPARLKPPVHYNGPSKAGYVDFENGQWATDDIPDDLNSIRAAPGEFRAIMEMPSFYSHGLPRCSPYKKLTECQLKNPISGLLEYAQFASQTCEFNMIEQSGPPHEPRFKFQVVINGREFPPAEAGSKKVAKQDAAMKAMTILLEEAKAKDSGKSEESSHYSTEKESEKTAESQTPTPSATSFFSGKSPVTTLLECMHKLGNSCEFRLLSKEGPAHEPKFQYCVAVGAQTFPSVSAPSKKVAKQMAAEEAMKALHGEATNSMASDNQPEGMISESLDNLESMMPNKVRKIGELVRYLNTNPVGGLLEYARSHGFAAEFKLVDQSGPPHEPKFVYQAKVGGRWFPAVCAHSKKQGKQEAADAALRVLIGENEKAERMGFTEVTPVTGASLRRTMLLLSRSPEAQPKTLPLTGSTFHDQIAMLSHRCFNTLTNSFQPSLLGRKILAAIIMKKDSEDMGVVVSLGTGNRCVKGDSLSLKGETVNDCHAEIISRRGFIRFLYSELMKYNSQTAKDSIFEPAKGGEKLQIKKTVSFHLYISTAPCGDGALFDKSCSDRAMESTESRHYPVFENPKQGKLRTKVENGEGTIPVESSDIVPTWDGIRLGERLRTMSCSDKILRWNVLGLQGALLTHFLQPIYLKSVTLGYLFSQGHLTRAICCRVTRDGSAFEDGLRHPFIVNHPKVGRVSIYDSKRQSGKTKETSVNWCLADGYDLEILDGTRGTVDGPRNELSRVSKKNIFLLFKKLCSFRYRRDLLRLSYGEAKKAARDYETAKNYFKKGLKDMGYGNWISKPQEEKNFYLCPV

Row | Binding to ADAR1p110-WT [2] | Structure (SMILES) | further results
1 |  | Nc1ncnc2c1nnn2[C@@H]1O[C@H](CO)[C@@H](O)[C@H]1O [8-azaadenosine] | ADAR inhibition [1]: not ADAR inhibitors
2 |  | Nc1ncnc2c1nc(Cl)n2[C@@H]1O[C@H](CO)[C@@H](O)[C@H]1O [8-chloroadenosine] | ADAR inhibition [1]: not ADAR inhibitors
3 | did not bind | N#Cc1ccc(NC(=O)c2nc3ccccc3[nH]2)cc1 [ADAR1i-122] | 
4 | did not bind | N#Cc1ccc(NC(=O)c2nc3c(N)ncnc3[nH]2)cc1 [ADAR1i-123] | 
5 | did not bind | N#Cc1ccc(NC(=O)c2cc3ccccc3s2)cc1 [ADAR1i-125] | 
6 | did not bind | N#Cc1ccc(NC(=O)c2[nH]c3ccccc3c2Cl)cc1 [ADAR1i-126] | 
7 |  | COc1cccc2c1C(=O)c1c(O)c3c(c(O)c1C2=O)C[C@@](O)(C(=O)CO)C[C@@H]3O[C@H]1C[C@H](N)[C@H](O)[C@H](C)O1 [Doxorubicin] | Acute apoptosis detected by reduction of FFL activity [3]: induces acute apoptosis
